From the NIST ThermoML archive (doi:10.1021/je400274f)
“And” between values parts separate entries of the source, which are not always exact repeats. Identical values can stand only once.

Conditions: 101.33 kPa, Liquid; for viscosity: Concentric cylinders viscometry; for speed of sound: Pulse-echo method; for mass density: Vibrating tube method

CCCCCCCCCC(C)CCCCCC (centres undefined) [7-methylhexadecane]
Conditions	mass density	speed of sound [m/s]	viscosity [mPa·s]
283.15 K	787.6 kg/m3	1392.5	5.36
293.15 K	780.7 kg/m3	1354.9	4
303.15 K	773.9 kg/m3 and 773.8 kg/m3	1317.7	3.09
313.15 K	767 kg/m3 and 766.9 kg/m3	1281.3	2.47
323.15 K	760.2 kg/m3 and 760 kg/m3	1245.5	2
333.15 K	753.1 kg/m3	–	1.66
343.15 K	746.2 kg/m3	–	1.41
353.15 K	739.3 kg/m3	–	1.21
363.15 K	732.4 kg/m3	–	1.05
373.15 K	725.4 kg/m3	–	0.91

CCC(C)CCC(C)CC (centres undefined) [3,6-dimethyloctane]
Conditions	mass density	speed of sound [m/s]	viscosity [mPa·s]
283.15 K	746.6 kg/m3 and 746.6 kg/m3	1277.8	0.988
293.15 K	738.9 kg/m3 and 738.9 kg/m3	1236.7	0.846
303.15 K	731.2 kg/m3 and 731.1 kg/m3	1196.2	0.733
313.15 K	723.5 kg/m3 and 723.3 kg/m3	1156.3	0.62
323.15 K	715.7 kg/m3 and 715.5 kg/m3	1117.2	0.568
333.15 K	707.6 kg/m3	–	0.506
343.15 K	699.6 kg/m3	–	0.453
353.15 K	691.5 kg/m3	–	0.409
363.15 K	683.3 kg/m3	–	0.372
373.15 K	674.9 kg/m3	–	0.328

CCCCC(C)CCC (centres undefined) [4-methyloctane]
Conditions	mass density	speed of sound [m/s]	viscosity [mPa·s]
283.15 K	727.5 kg/m3 and 727.6 kg/m3	1254.9	0.719
293.15 K	719.8 kg/m3 and 719.7 kg/m3	1213	0.628
303.15 K	711.9 kg/m3 and 711.7 kg/m3	1171.6	0.554
313.15 K	703.9 kg/m3 and 703.7 kg/m3	1130.8	0.453
323.15 K	695.9 kg/m3 and 695.7 kg/m3	1090.7	0.441
333.15 K	687.5 kg/m3	–	0.397
343.15 K	679.3 kg/m3	–	0.368
353.15 K	671 kg/m3	–	0.329
363.15 K	662.5 kg/m3	–	0.294
373.15 K	653.9 kg/m3	–	0.261

CCCCCCCCC(C)CC (centres undefined) [3-methylundecane]
Conditions	mass density	speed of sound [m/s]	viscosity [mPa·s]
283.15 K	758.6 kg/m3 and 758.3 kg/m3	1330.2	1.73
293.15 K	751.1 kg/m3 and 751.3 kg/m3	1291	1.43
303.15 K	743.9 kg/m3 and 744 kg/m3	1252.2	1.2
313.15 K	736.6 kg/m3 and 736.7 kg/m3	1214	1.01
323.15 K	729.3 kg/m3	1176.6	0.883
333.15 K	721.9 kg/m3	–	0.771
343.15 K	714.4 kg/m3	–	0.68
353.15 K	707 kg/m3	–	0.605
363.15 K	699.4 kg/m3	–	0.543
373.15 K	691.9 kg/m3	–	0.492

CCCCCCCCC(C)C [2-methyldecane]
Conditions	mass density	speed of sound [m/s]	viscosity [mPa·s]
283.15 K	745.7 kg/m3 and 745.8 kg/m3	1295.5	1.37
293.15 K	738.4 kg/m3 and 738.3 kg/m3	1256.2	1.15
303.15 K	730.9 kg/m3	1217.1	0.977
313.15 K	723.5 kg/m3 and 723.2 kg/m3	1178.8	0.83
323.15 K	715.9 kg/m3 and 715.7 kg/m3	1141	0.736
333.15 K	708.1 kg/m3	–	0.647
343.15 K	700.5 kg/m3	–	0.575
353.15 K	692.8 kg/m3	–	0.514
363.15 K	684.9 kg/m3	–	0.464
373.15 K	677 kg/m3	–	0.422

CCC(C)CC(C)CC (centres undefined) [3,5-dimethylheptane]
Conditions	mass density	speed of sound [m/s]	viscosity [mPa·s]
283.15 K	734.1 kg/m3 and 734 kg/m3	1245.1	0.792
293.15 K	726.2 kg/m3 and 726.3 kg/m3	1203.3	0.688
303.15 K	718.4 kg/m3 and 718.4 kg/m3	1162	0.604
313.15 K	710.5 kg/m3 and 710.5 kg/m3	1121.3	0.508
323.15 K	702.5 kg/m3 and 702.5 kg/m3	1081.4	0.477
333.15 K	694.5 kg/m3	–	0.428
343.15 K	686.3 kg/m3	–	0.386
353.15 K	678 kg/m3	–	0.35
363.15 K	669.7 kg/m3	–	0.319
373.15 K	661.2 kg/m3	–	–

CCCCCCCCCCCCCC(C)C [2-methylpentadecane]
Conditions	mass density	speed of sound [m/s]	viscosity [mPa·s]
283.15 K	782.2 kg/m3 and 781.8 kg/m3	1378.7	4.6
293.15 K	774.9 kg/m3 and 775 kg/m3	1341	3.52
303.15 K	767.9 kg/m3 and 768 kg/m3	1303.8	2.77
313.15 K	761 kg/m3	1267.3	2.24
323.15 K	754.1 kg/m3 and 754 kg/m3	1231.6	1.85
333.15 K	747 kg/m3	–	1.55
343.15 K	740 kg/m3	–	1.33
353.15 K	733 kg/m3	–	1.14
363.15 K	726 kg/m3	–	1
373.15 K	718.9 kg/m3	–	0.88

CCCCCCC(C)C [2-methyloctane]
Conditions	mass density	speed of sound [m/s]	viscosity [mPa·s]
283.15 K	723.2 kg/m3 and 723.2 kg/m3	1242.2	0.776
293.15 K	715.4 kg/m3 and 715.3 kg/m3	1201.3	0.676
303.15 K	707.6 kg/m3 and 707.4 kg/m3	1160.7	0.594
313.15 K	699.6 kg/m3 and 699.4 kg/m3	1120.7	0.499
323.15 K	691.6 kg/m3 and 691.4 kg/m3	1081.2	0.47
333.15 K	683.3 kg/m3	–	0.422
343.15 K	675.1 kg/m3	–	0.381
353.15 K	666.7 kg/m3	–	0.345
363.15 K	658.2 kg/m3	–	0.315
373.15 K	649.7 kg/m3	–	0.288

CCCCCCCC(C)C [2-methylnonane]
Conditions	mass density	speed of sound [m/s]	viscosity [mPa·s]
283.15 K	734.7 kg/m3 and 734.5 kg/m3	1271.4	1.037
293.15 K	726.9 kg/m3 and 727.1 kg/m3	1231.1	0.887
303.15 K	719.3 kg/m3 and 719.4 kg/m3	1191.3	0.768
313.15 K	711.6 kg/m3 and 711.7 kg/m3	1152	0.653
323.15 K	703.9 kg/m3 and 703.9 kg/m3	1113.4	0.595
333.15 K	696 kg/m3	–	0.529
343.15 K	688.1 kg/m3	–	0.475
353.15 K	680.2 kg/m3	–	0.428
363.15 K	672.1 kg/m3	–	0.388
373.15 K	664 kg/m3	–	0.355
